The source of these data is ChEMBL document CHEMBL5154778, “Discovery and Structure-Based Optimization of Novel Atg4B Inhibitors for the Treatment of Castration-Resistant Prostate Cancer” (J Med Chem, 2022).

Active and inactive are the calls of the source. No cut-off for these calls is given here.

Assay [1] concerns the target T1, Cysteine protease ATG4B (Homo sapiens, UniProt Q9Y4P1).
T1 sequence (Q9Y4P1 whole entry): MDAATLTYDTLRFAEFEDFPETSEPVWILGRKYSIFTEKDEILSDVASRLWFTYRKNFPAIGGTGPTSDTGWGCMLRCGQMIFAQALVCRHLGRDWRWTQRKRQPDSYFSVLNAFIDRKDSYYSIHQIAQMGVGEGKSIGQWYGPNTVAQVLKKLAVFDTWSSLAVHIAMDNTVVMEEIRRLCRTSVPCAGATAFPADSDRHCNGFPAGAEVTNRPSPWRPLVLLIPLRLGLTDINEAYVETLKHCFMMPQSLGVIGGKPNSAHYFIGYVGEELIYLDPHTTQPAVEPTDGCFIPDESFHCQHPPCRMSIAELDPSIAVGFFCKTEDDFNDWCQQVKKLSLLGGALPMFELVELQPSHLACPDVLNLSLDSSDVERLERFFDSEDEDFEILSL
The experiment in a line: Inhibition of recombinant ATG4B (unknown origin) expressed in Escherichia coli BL21(DE3) pLysS cells using LC3-GST as substrate incubated for 3 hrs by coomassie brilliant blue staining based assay.

In the next assay the target is Phospholipase A2 (Homo sapiens, UniProt P04054). The experiment in a line: Inhibition of PLA2 (unknown origin).
Phospholipase A2, sequence (P04054 whole entry): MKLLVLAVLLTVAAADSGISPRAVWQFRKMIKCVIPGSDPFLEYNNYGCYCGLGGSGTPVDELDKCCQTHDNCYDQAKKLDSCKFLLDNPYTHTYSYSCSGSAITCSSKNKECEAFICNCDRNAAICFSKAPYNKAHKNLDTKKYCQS
The species entered for the next assay is Homo sapiens. The experiment in a line: Selectivity ratio of IC50 for inhibition of PLA2 (unknown origin) to IC50 for inhibition of recombinant ATG4B (unknown origin) expressed in Escherichia coli BL21(DE3) pLysS cells.
Assay [2] concerns LNCaP. The experiment in a line: Induction of apoptosis in human LNCaP cells assessed as increase in cleaved capase-9 expression at 10 uM preincubated for 2 hrs followed by abiraterone addition and measured after 24 hrs by Western blotting analysis. The class given is functional, cell-based. The settings on record: time 26.0 hrs. (A western blot detects proteins with antibodies after separation by electrophoresis.)

The target in assay [3] is T2, Cysteine protease ATG4B (Homo sapiens) (UniProt Q9Y4P1).
T2 sequence (whole entry): T1 sequence (Q9Y4P1 whole entry)
The experiment in a line: Inhibition of recombinant ATG4B (unknown origin) expressed in Escherichia coli BL21(DE3) pLysS cells at 10 uM using LC3-GST as substrate incubated for 3 hrs by coomassie brilliant blue staining based assay.

The test system of assay [4] is LNCaP. The experiment in a line: Inhibition of abiraterone induced autophagy in human LNCaP cells at 10 uM preincubated for 2 hrs followed by abiraterone addition and measured after 24 hrs by DAP green staining based assay. It is filed as functional, cell-based. To be noted: time 26.0 hrs.
Assay [5] addresses T1, Cysteine protease ATG4B. The experiment in a line: Inhibition of recombinant ATG4B (unknown origin) expressed in Escherichia coli BL21(DE3) pLysS cells assessed as inhibition constant using LC3-GST as substrate incubated for 3 hrs by coomassie brilliant blue staining based assay.
Assay [6] relates to LNCaP. The experiment in a line: Inhibition of AFM induced autophagy in human LNCaP cells assessed as suppression of autophagosome by DAP green staining based assay. It is filed as functional, cell-based.
Assay [7] relates to LNCaP. The experiment in a line: Inhibition of AFM induced autophagy in human LNCaP cells assessed as restoration of p62 expression at 5 uM by Western blot analysis. The class given is functional, cell-based.
Assay [8] concerns LNCaP. The experiment in a line: Induction of apoptosis in human LNCaP cells assessed as increase in cleaved PARP expression at 10 uM preincubated for 2 hrs followed by abiraterone addition and measured after 24 hrs by Western blotting analysis. To be noted: time 26.0 hrs. It is filed as functional, cell-based.
The target in assay [9] is T2, Cysteine protease ATG4B (Homo sapiens). The experiment in a line: Inhibition of recombinant ATG4B (unknown origin) expressed in Escherichia coli BL21(DE3) pLysS cells at 100 uM using LC3-GST as substrate incubated for 3 hrs by coomassie brilliant blue staining based assay.
Assay [10] shares this target. The experiment in a line: Reversible inhibition of recombinant ATG4B (unknown origin) expressed in Escherichia coli BL21(DE3) pLysS cells at 100 uM using LC3-GST as substrate preincubated for 30 mins with 0.3 uM LC3-GST followed by dialysis and again incubated with 3 uM LC3-GST for 15 mins by coomassie brilliant blue staining based assay. To be noted: time 45.0 min.

Assay [11] has the same target. The experiment in a line: Inhibition of recombinant ATG4B (unknown origin) expressed in Escherichia coli BL21(DE3) pLysS cells at 20 to 50 uM using LC3-GST as substrate by coomassie brilliant blue staining based assay. To be noted: dose 20-50 µM, time 15-180 min, TDE = time-dependent effect.
Assay [12] relates to LNCaP. The experiment in a line: Inhibition of enzalutamide induced autophagy in human LNCaP cells at 10 uM preincubated for 2 hrs followed by enzalutamide addition and measured after 24 hrs by DAP green staining based assay. The class given is functional, cell-based. The settings on record: time 26.0 hrs.
For assay [13], the system named is LNCaP. The experiment in a line: Induction of autophagy in human LNCaP cells assessed as increase in GABARAP2 level at 10 uM preincubated for 2 hrs followed by medium change into aminoacid free medium for 3 hrs by immunoblotting analysis. The class given is functional, cell-based. To be noted: time 5.0 hrs.
Assay [14] deals with LNCaP. The experiment in a line: Induction of apoptosis in human LNCaP cells assessed as increase in cleaved PARP level at 5 uM preincubated for 2 hrs followed by cabazitaxel addition and measured after 24 hrs by immunoblotting analysis. The class given is functional, cell-based. To be noted: time 26.0 hrs.
Assay [15] has as its system LNCaP. The experiment in a line: Induction of apoptosis in human LNCaP cells assessed as increase in cleaved PARP level at 5 uM preincubated for 2 hrs followed by apalutamide addition and measured after 24 hrs by immunoblotting analysis. It is filed as functional, cell-based. To be noted: time 26.0 hrs.
Assay [16] deals with LNCaP. The experiment in a line: Induction of apoptosis in human LNCaP cells assessed as increase in cleaved PARP level at 5 uM preincubated for 2 hrs followed by abiraterone addition and measured after 24 hrs by immunoblotting analysis. The class given is functional, cell-based. To be noted: time 26.0 hrs.
Assay [17] concerns LNCaP. The experiment in a line: Inhibition of AFM induced autophagy in human LNCaP cells assessed as restoration of p62 expression preincubated for 2 hrs followed by medium change into aminoacid free medium for 24 hrs by immunoblotting analysis. To be noted: dose 1-10 µM, time 26.0 hrs, DDE = dose-dependent effect. It is filed as functional, cell-based.
Assay [18] deals with LNCaP. The experiment in a line: Induction of apoptosis in human LNCaP cells assessed as increase in cleaved PARP level at 5 uM preincubated for 2 hrs followed by enzalutamide addition and measured after 24 hrs by immunoblotting analysis. To be noted: time 26.0 hrs. It is filed as functional, cell-based.
Assay [19] deals with LNCaP. The experiment in a line: Inhibition of AFM induced autophagy in human LNCaP cells assessed as decrease in autophagic vesicles at 1 uM preincubated for 2 hrs followed by medium change into aminoacid free medium for 3 hrs by DAP green staining based assay. The settings on record: time 5.0 hrs. The class given is functional, cell-based.
A short description of assay [20]: Inhibition of AFM induced autophagy in human LNCaP cells assessed as decrease in autophagic vesicles at 5 uM preincubated for 2 hrs followed by medium change into aminoacid free medium for 3 hrs by DAP green staining based assay. To be noted: time 5 hrs. It is filed as functional.
Assay [21] has as its system LNCaP. The experiment in a line: Induction of apoptosis in human LNCaP cells assessed as increase in cleaved capase-9 expression at 10 uM preincubated for 2 hrs followed by enzalutamide addition and measured after 24 hrs by Western blotting analysis. It is filed as functional, cell-based. To be noted: time 26.0 hrs.
The test system of assay [22] is LNCaP. The experiment in a line: Induction of autophagy in human LNCaP cells assessed as increase in Ser403-phosphorylated P62 level at 1 to 10 uM incubated for 24 hrs by Western blot analysis. The class given is functional, cell-based. To be noted: dose 1-10 µM.
The test system of assay [23] is LNCaP. The experiment in a line: Anticancer activity against human LNCaP cells assessed as reduction in cell viability incubated for 72 hrs by alamar blue assay. The class given is functional, cell-based. The settings on record: DDE = dose-dependent effect. (Alamar Blue is a resazurin reagent that responds to reducing activity.)
The subject of assay [24] is LNCaP. The experiment in a line: Induction of apoptosis in human LNCaP cells assessed as increase in cleaved PARP expression at 10 uM preincubated for 2 hrs followed by enzalutamide addition and measured after 24 hrs by Western blotting analysis. It is filed as functional, cell-based. The settings on record: time 26.0 hrs.
Assay [25] deals with LNCaP. The experiment in a line: Induction of apoptosis in human LNCaP cells transfected with Atg4B siRNA at 10 uM incubated for 24 hrs by immunoblotting analysis. The class given is functional, cell-based.
Assay [26] concerns LNCaP. The experiment in a line: Induction of autophagy in human LNCaP cells assessed as increase in LC3-2 level at 1 to 10 uM incubated for 24 hrs by Western blot analysis. It is filed as functional, cell-based. The settings on record: dose 1-10 µM.
Assay [27] relates to LNCaP. The experiment in a line: Induction of apoptosis in human LNCaP cells assessed PARP cleavage at 10 uM incubated for 24 hrs by immunoblotting analysis. It is filed as functional, cell-based.

On to `CCCCCCCc1ccc(C(=O)/C=C/C(=O)O)cc1`, for which the IC50 was 26 µM at Cysteine protease ATG4B [1] and 5.9 µM on Phospholipase A2. Moreover, the Ratio IC50 in the assay filed under Homo sapiens is 56.
Consider `CCCCCCCCCCCCCCCCCCc1ccc(C(=O)/C=C/C(=O)O)cc1`, for which the outcome in the assay on LNCaP [2] and in the assay with LNCaP [8] was Active. Besides, the inhibition entry (in assay [3]; in the assay on LNCaP [4]; in the assay on LNCaP [6]; in the assay with LNCaP [7]; in assay [9]; in assay [10]) was “Active” throughout. Also, the inhibition result with LNCaP [12] was “Active”. Moreover, the Ki at Cysteine protease ATG4B [5] amounted to 4.6 µM. The values for the IC50 at Cysteine protease ATG4B [1] and on Phospholipase A2 were 12 µM and 0.049 µM, respectively. Moreover, the Ratio IC50 in the assay filed under Homo sapiens worked out at 1. The inhibition result in assay [11] is “Tde”.
In the case of `CCCCCCCCCCCCCCCCCc1ccc(C(=O)/C=C/C(=O)O)cc1`, the 50% inhibitory concentration (IC50) on Cysteine protease ATG4B [1] turned out to be 47 µM.
For the compound `CCN(CC)CCCC(C)Nc1ccnc2cc(Cl)ccc12` (stereo unspecified), the outcome in the assay with LNCaP [13] was Active.
For the compound `CCCCCc1ccc(C(=O)/C=C/C(=O)O)cc1`, the IC50 on Cysteine protease ATG4B [1] came to 36 µM; against Phospholipase A2, 30 µM. Further, in the assay listed under Homo sapiens, the Ratio IC50 came out at 200.
Regarding `CCCCCCCCCCCc1ccc(C(=O)/C=C/C(=O)O)cc1`, the result with LNCaP [14], with LNCaP [15], in the assay with LNCaP [16] and in the assay with LNCaP [18] was Active. Also, on Cysteine protease ATG4B [5], the Ki was found to be 3.1 µM. For the same compound, the IC50 turned out to be 11 µM at Cysteine protease ATG4B [1] and 3.5 µM against Phospholipase A2. Further, the inhibition entry with LNCaP [17] was “Dde”. The Ratio IC50 in the assay filed under Homo sapiens came out at 80. In the assay on LNCaP [19], the inhibition entry is “Active”. Moreover, the inhibition at 5 µM in assay [20] came to 100%.
For the compound `CCCCCCCCCCCCCCCc1ccc(C(=O)/C=C/C(=O)O)cc1`, the results for the IC50 on Cysteine protease ATG4B [1] and at Phospholipase A2 were 46 µM and 5.4 µM, respectively. For the same compound, in the assay filed under Homo sapiens, the Ratio IC50 came to 29.
On to `CCCCCCCCCCc1ccc(C(=O)/C=C/C(=O)O)cc1`, for which the IC50 at Cysteine protease ATG4B [1] is 13 µM; against Phospholipase A2 it was 1.6 µM. Besides, in the assay filed under Homo sapiens, the Ratio IC50 came to 30.
For the compound `C[C@]12CC[C@H](O)CC1=CC[C@@H]1[C@@H]2CC[C@]2(C)C(c3cccnc3)=CC[C@@H]12`, the result in the assay with LNCaP [21], in the assay with LNCaP [22], in the assay on LNCaP [24], in the assay with LNCaP [25], in the assay with LNCaP [26] and with LNCaP [27] was Active. The Activity result in the assay on LNCaP [23] is “Dde”.
For `CCCCCCCCCCCCCCCCCCCc1ccc(C(=O)/C=C/C(=O)O)cc1`, the IC50 on Cysteine protease ATG4B [1] came out at 73 µM; on Phospholipase A2, 0.35 µM. Further, the Ratio IC50 in the assay listed under Homo sapiens was found to be 12.
Regarding `O=C(O)/C=C/C(=O)c1ccccc1`, at Cysteine protease ATG4B [1], the IC50 amounted to 580 µM.
Consider `CCCCCCCCCCCCCc1ccc(C(=O)/C=C/C(=O)O)cc1`, for which the IC50 on Cysteine protease ATG4B [1] is 21 µM; on Phospholipase A2, 7.1 µM. The Ratio IC50 in the assay filed under Homo sapiens was determined as 85.
`CCCCCCCCCCCCCCCCCCCCCc1ccc(C(=O)/C=C/C(=O)O)cc1`: on Cysteine protease ATG4B [1], the IC50 was found to be 42 µM.
On the same count and under the same terms, in the case of `CCCc1ccc(C(=O)/C=C/C(=O)O)cc1` it was 130 µM.
Turning to `CCCCCCCCCCCCc1ccc(C(=O)/C=C/C(=O)O)cc1`, the IC50 at Cysteine protease ATG4B [1] was found to be 13 µM; at Phospholipase A2, 1.3 µM. Moreover, in the assay listed under Homo sapiens, the Ratio IC50 is 24.
In the same order, the values of `CCCCCCCCCc1ccc(C(=O)/C=C/C(=O)O)cc1` are 21 µM, 8 µM and 93.

One may read the IC50 as the concentration that gives 50% inhibition. A word on the inhibition: it is the change of the read-out against control, counted positive when it falls. By Ki is commonly meant the dissociation constant of the complex between target and ligand, obtained from inhibition or displacement.
